Some test systems named below: SF-268 CNS; UACC-62 melanoma; M19-MEL melanoma; SNB-78 CNS; UACC-257 melanoma; NCI-H460 lung; SK-OV-3 ovarian; U251 CNS; DU-145 prostate; MALME-3M melanoma.
Common to all, as to experiment: growth of human tumour cells (NCI), 48 h

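96-well plates; 48 h exposure; 5 concentrations. Endpoints by linear interpolation between flanking doses. Not reached: highest tested concentration assigned. GI50 is the concentration that inhibits growth by half. At the TGI there is no net growth.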 A value given as a limit tells only on which side of the number the result lay.

As for `O=C1c2ccccc2C(=O)N1CC#CCO`, the TGI in the experiment with SF-268 CNS, in the experiment on UACC-62 melanoma, in the experiment with M19-MEL melanoma, with SNB-78 CNS, with UACC-257 melanoma and in the experiment on NCI-H460 lung was over 100 µM each time. Further, the TGI with SK-OV-3 ovarian and in the experiment on U251 CNS was over 100 µM each time.
In the case of `Cc1cc(I)cc(CN(C)CCCN2CCC(C)CC2)c1O`, the GI50 is 14.6 µM in the experiment with SF-268 CNS; 14.2 µM in the experiment with UACC-62 melanoma; 11.8 µM in the experiment with UACC-257 melanoma; 15.5 µM with DU-145 prostate; 12.5 µM in the experiment with NCI-H460 lung; 16.9 µM in the experiment with MALME-3M melanoma. The GI50 in the experiment with SK-OV-3 ovarian is 15.9 µM; with U251 CNS, 15.2 µM. For the same molecule, the TGI is 27.7 µM in the experiment on SF-268 CNS; 30.4 µM with UACC-62 melanoma; 25.3 µM with UACC-257 melanoma; 28.8 µM with DU-145 prostate; 25 µM in the experiment with NCI-H460 lung; 33 µM with MALME-3M melanoma. For the same molecule, the TGI in the experiment on SK-OV-3 ovarian was 31.1 µM; in the experiment on U251 CNS, 29.8 µM.
Consider `O=C(Nc1ccc(Br)c2ccccc12)c1ccc2ccccc2c1O`, for which the TGI in the experiment on SF-268 CNS is 31.8 µM; with UACC-62 melanoma, 15 µM; in the experiment on UACC-257 melanoma, 23.9 µM; in the experiment on DU-145 prostate it was 85.4 µM; in the experiment on NCI-H460 lung it was 13.1 µM; with MALME-3M melanoma it was 9.3 µM. Moreover, the TGI with SK-OV-3 ovarian amounted to 18.6 µM; with U251 CNS, 35.2 µM.
For the molecule `COc1ccc(C(=O)/C=C/c2ccc(OCc3cccc(C(F)(F)F)c3)c(OC)c2)cc1OC`, the GI50 was 76.6 µM in the experiment with SF-268 CNS; 52.2 µM in the experiment on UACC-62 melanoma; 613 µM with UACC-257 melanoma; 72.6 µM in the experiment on DU-145 prostate; 51.7 µM in the experiment with NCI-H460 lung; 271 µM with MALME-3M melanoma. Moreover, the GI50 with SK-OV-3 ovarian is 221 µM; with U251 CNS, 61.4 µM. Further, the TGI with SF-268 CNS, in the experiment with UACC-62 melanoma, in the experiment with UACC-257 melanoma, in the experiment on DU-145 prostate, with NCI-H460 lung and with MALME-3M melanoma was over 1000 µM each time. In addition, the TGI in the experiment with SK-OV-3 ovarian and in the experiment on U251 CNS was over 1000 µM each time.
Take `Cc1cc(OCc2ccc(C(F)(F)F)cc2)c2c(c1)C(=O)C=C(NCCN1CCCC1)C2=O`: the GI50 in the experiment on SF-268 CNS was 1.97 µM; in the experiment on UACC-62 melanoma, 1.82 µM; in the experiment with UACC-257 melanoma, 1.67 µM; with DU-145 prostate, 6.15 µM; with NCI-H460 lung it was 1.84 µM; in the experiment with MALME-3M melanoma, 2.09 µM. Moreover, the GI50 with SK-OV-3 ovarian is 3.45 µM; with U251 CNS, 1.72 µM. Besides, the TGI was 4.24 µM with SF-268 CNS; 3.51 µM in the experiment on UACC-62 melanoma; 3.27 µM in the experiment with UACC-257 melanoma; 18.6 µM in the experiment with DU-145 prostate; 3.43 µM in the experiment with NCI-H460 lung; 3.95 µM with MALME-3M melanoma. Besides, the TGI with SK-OV-3 ovarian stood at 10.6 µM; with U251 CNS, 3.45 µM.
Take `CC1=CC(C)=N/C(=N/S(=O)(=O)c2cc(C)c(Cl)cc2SCc2ccccc2)NN1`: the GI50 was 78.1 µM in the experiment on SF-268 CNS; over 100 µM in the experiment with UACC-62 melanoma; over 100 µM in the experiment with UACC-257 melanoma; over 100 µM in the experiment with DU-145 prostate; over 100 µM in the experiment on NCI-H460 lung; over 100 µM in the experiment on MALME-3M melanoma. Further, the figures for the GI50 with SK-OV-3 ovarian and in the experiment on U251 CNS were over 100 µM and 82.3 µM, respectively. In addition, the TGI with SF-268 CNS, in the experiment on UACC-62 melanoma, with UACC-257 melanoma, in the experiment on DU-145 prostate, with NCI-H460 lung and in the experiment with MALME-3M melanoma was over 100 µM each time. The TGI in the experiment with SK-OV-3 ovarian and in the experiment on U251 CNS was over 100 µM throughout.
Turning to `Cn1nc(C(F)(F)F)cc1-c1cc(Cl)c(OCc2ccc(Cl)cc2)c(-c2ccc(Cl)c(C(F)(F)F)c2)c1O`, the GI50 in the experiment with SF-268 CNS was 1.24 µM; in the experiment on UACC-62 melanoma, 0.91 µM; in the experiment on UACC-257 melanoma it was 0.964 µM; in the experiment on DU-145 prostate it was 1.76 µM; in the experiment with NCI-H460 lung it was 0.852 µM; in the experiment on MALME-3M melanoma, 1.06 µM. Besides, the GI50 is 1.43 µM with SK-OV-3 ovarian and 1.05 µM in the experiment with U251 CNS. Moreover, the TGI with SF-268 CNS was 5.47 µM; in the experiment with UACC-62 melanoma, 2.51 µM; with UACC-257 melanoma it was 3.14 µM; with DU-145 prostate, 6.87 µM; with NCI-H460 lung it was 2.21 µM; in the experiment with MALME-3M melanoma, 2.57 µM. Besides, the values for the TGI in the experiment on SK-OV-3 ovarian and in the experiment with U251 CNS were 4.31 µM and 5.13 µM, respectively.
`CC(NNC(=S)N1CCN(c2ccccn2)CC1)c1nccc2ccccc12` (stereo unspecified): the TGI came out at 14.5 µM in the experiment with SF-268 CNS; 2.35 µM in the experiment with UACC-62 melanoma; 12.9 µM in the experiment on UACC-257 melanoma; 13.8 µM with DU-145 prostate; 11.3 µM in the experiment with NCI-H460 lung; 15.5 µM with MALME-3M melanoma. In addition, the TGI with SK-OV-3 ovarian stood at 15.1 µM; in the experiment on U251 CNS, 14.3 µM.
`COc1cc(OC)c(/C=C/C(=O)c2c(OC)cc(OC)cc2OC)c(OC)c1`: the GI50 in the experiment on SF-268 CNS is 1.84 µM; with UACC-62 melanoma it was 0.414 µM; in the experiment on UACC-257 melanoma it was 3.58 µM; in the experiment on DU-145 prostate, 2.21 µM; in the experiment on NCI-H460 lung, 0.976 µM; in the experiment on MALME-3M melanoma it was 1.07 µM. Moreover, the results for the GI50 in the experiment on SK-OV-3 ovarian and in the experiment with U251 CNS were 2.66 µM and 1.11 µM, respectively. Also, the TGI in the experiment with SF-268 CNS is 6.96 µM; in the experiment on UACC-62 melanoma, 4.14 µM; with UACC-257 melanoma, over 100 µM; in the experiment on DU-145 prostate it was 8.51 µM; in the experiment with NCI-H460 lung, 7.74 µM; in the experiment with MALME-3M melanoma it was over 100 µM. The figures for the TGI with SK-OV-3 ovarian and with U251 CNS were 25.9 µM and 9.43 µM, respectively.
Turning to `Nc1ccc(C#Cc2ccccc2C#CCCCCO)cc1`, the GI50 is 19.9 µM with SF-268 CNS; 14.9 µM in the experiment on UACC-62 melanoma; 18.9 µM with UACC-257 melanoma; 18.4 µM with DU-145 prostate; 21.8 µM with NCI-H460 lung; 24.8 µM in the experiment with MALME-3M melanoma. For the same molecule, the GI50 is 18.1 µM with SK-OV-3 ovarian and 11.1 µM in the experiment with U251 CNS. For the same molecule, the TGI was 40.4 µM with SF-268 CNS; 28.3 µM in the experiment with UACC-62 melanoma; 33.8 µM in the experiment on UACC-257 melanoma; 35.1 µM in the experiment on DU-145 prostate; 45.4 µM with NCI-H460 lung; 43.9 µM in the experiment on MALME-3M melanoma. The results for the TGI in the experiment on SK-OV-3 ovarian and with U251 CNS were 34.7 µM and 23.1 µM, respectively.

The values are drawn from PubChem BioAssay (NCI).
